# Where two headings read alike, the source gives them in different places.
# Legend:
# human NK-3 receptor = molecular target: T1, human NK-3 receptor (Homo sapiens, UniProt P29371); test: Antagonistic activity on human NK-3 receptor in human NK-3R/HEK293 stably transfected cells (Fluo-4, FLIPR, Neurokinin B as agonist); type: cell-based; conditions: human NK-3R/HEK293 cells
# T1 construct: expressed in transfected cells; host or cells: HEK293
# T1 sequence (P29371 1-465): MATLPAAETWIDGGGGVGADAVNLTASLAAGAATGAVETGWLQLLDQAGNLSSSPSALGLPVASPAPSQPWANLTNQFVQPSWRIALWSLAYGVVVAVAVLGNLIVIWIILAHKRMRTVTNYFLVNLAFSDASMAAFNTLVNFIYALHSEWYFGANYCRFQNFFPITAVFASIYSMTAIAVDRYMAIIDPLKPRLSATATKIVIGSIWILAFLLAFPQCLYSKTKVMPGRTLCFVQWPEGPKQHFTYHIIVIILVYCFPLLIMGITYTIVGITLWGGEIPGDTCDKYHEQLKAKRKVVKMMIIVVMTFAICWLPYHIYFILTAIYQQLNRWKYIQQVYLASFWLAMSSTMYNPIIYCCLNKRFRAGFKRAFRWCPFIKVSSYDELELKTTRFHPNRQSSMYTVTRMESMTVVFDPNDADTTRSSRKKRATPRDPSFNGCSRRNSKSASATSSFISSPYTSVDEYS
# Description: Test Example 1: Determination of Activity of Compounds of the Present Invention on Human NK-3 Receptor
# This method is used to determine antagonistic effects of the compounds of the present invention on the activity of human NK-3 receptor proteins expressed in cell lines stably transfected with human NK-3R/HEK293.
# 2.1 The cell lines stably transfected with human NK-3R/HEK293 were inoculated in a 384-well cell culture plate at a inoculation density of 12,000 cells/well/25 μL, and cultured at 37° C. and 5% CO2 overnight;
# 2.2 20× Component A was frozen and thawed to room temperature, diluted 2× with Assay Buffer to working concentration, and kept at room temperature for later use;
# 2.3 The cell culture plate was equilibrated at room temperature for 10 min, the culture medium was removed, and 20 μL of Assay Buffer and 20 μL of 2× Component A […] were added, followed by centrifugation at 200 g at room temperature for 3-5 sec, and incubation at 37° C. for 2 h;
# 2.4 The compound was diluted 3 times with DMSO in 384 PP_DMSO plate, and then 240 nl/well of the compound was transferred into a working plate with Echo 550, centrifugated at 200 g at room temperature for 1 min; 40 μl of Assay Buffer was added into the working plate, centrifugated at 200 g at room temperature for 1 min, and then fully mixed in an oscillator at 2500 rpm for 20 min, and then centrifugated at 200 g at room temperature for 1 min for later use;
# 2.5 2.5 nM Neurokinin B TFA (6×) was prepared from Assay Buffer, 50 uL of which was transferred onto 3657 plate for later use;
# 2.6 The cell culture plate was taken out and left to stand at room temperature for 10 min, then […] the compound diluted in step 2.4 was added into corresponding wells, and the cell culture plate was left to stand at 25° C. for 30 min; and
# 2.7 10 μL of the compound diluted in step 2.5 was added into the corresponding experimental wells with FLIPR Tetra, and data was collected.
# The antagonistic activity of the compounds of the present invention on the human NK-3 receptor was determined through the above experiments, to obtain inhibition curves of the compounds of the present invention and determine concentrations (IC50) of the corresponding compounds that inhibit 50% of the reference agonist.
# [1] = Pharmacokinetic test in rats (gavage 3 mg/kg, intravenous 1 mg/kg); type: in vivo; conditions: rat, plasma, SD rats; for bioavailability: gavage 3 mg/kg vs intravenous 1 mg/kg, read-out: Oral bioavailability F (%); for Cmax: read-out: Blood concentration Cmax; for AUC: read-out: Curve area AUC; for half-life: read-out: Half life T1/2 (converted)
# Description: Test Example 2: Pharmacokinetic Test of Compounds of the present invention in Rats
# (§1) To study in vivo pharmacokinetic behaviors of the compounds of the present invention in rats, and evaluate pharmacokinetic characteristics thereof.
# An appropriate amount of sample was weighed, and ultrasonically prepared into a 0.3 mg/mL suspension for the gavage administration group; and was prepared into a 0.2 mg/mL suspension for the intravenous administration group as per a formula of 5% DMSO+10% Solutol+85% (20% SBE-β-CD).
# SD rats were fasted overnight, and then administered by gavage at a dosage of 3 mg/kg and by intravenous injection at a dosage of 1 mg/kg, respectively.
# 0.1 mL of blood was collected before administration and at 5 min, 15 min, 30 min, 1 h, 2 h, 4 h, 8 h, and 24 h after administration, transferred into heparinized tubes, and centrifuged at 3500 rpm for 10 min to separate the plasma, which was stored at −20° C. 4 h after administration, the animals were resumed for feeding/free access to water.
# Contents of the test compounds in plasma of the rats after gavage administration were determined by LC/MS/MS.
# MDR1 = test: In vitro brain model test: MDR1-MDCKII bidirectional permeability; type: in vitro ADME; conditions: dog; for Papp A→B at 2.5 h, 2 μM / Papp B→A at 2.5 h, 2 μM: MDCK-MDR1, pH 7.4, 2 μM, pH7.4; for efflux ratio at 2.5 h, 2 μM: MDCK-MDR1, pH 7.4, B to A / A to B, read-out: Efflux rate
# Description: The test product was diluted from dimethyl sulfoxide stock solution to a concentration of 2 μM (dimethyl sulfoxide <1%) with a transfer buffer (HBSS containing 10 mM Hepes, pH7.4); and was applied to apical or basolateral cavities of the cell monolayer. Penetration of the test compound from the direction A to the direction B or from the direction B to the direction A was determined in duplicate. Digoxin was detected at 10 μM in the direction of A-B, or detected in the direction of B-A, while Nadolol and Metoprolol were detected at 2 μM in the direction of A-B in duplicate. The plate was cultivated in a CO2 incubator at 37±1° C. for 2.5 h with 5% CO2 at a saturated humidity without shaking. Further, the efflux rate of each compound was also determined. According to the peak area ratio of analyte/IS, the test product and the control product were quantitatively analyzed by LC-MS/MS.
# After the transfer test, the monolayer integrity of cells was determined by a lucifer yellow exclusion assay. Buffer was removed from apical and basolateral cavities, and then 75 μL of 100 μM lucifer yellow and 250 μL of transfer buffer were added into the apical and basolateral cavities, respectively. The culture dish was cultivated at 37° C., 5% CO2, and saturated humidity for 30 min without shaking. After incubation for 30 min, 20 μL of lucifer yellow sample was extracted from the top, and then 60 μL of the transfer buffer was added. Then, 80 μL of lucifer yellow sample was extracted basolaterally. Relative Fluorescence Units (RFU) of lucifer yellow were measured at 425/528 nm (excitation/emission) with an Envision plate reader.
# [2] = Pharmacokinetic test in rats: plasma and brain concentration after gavage 3 mg/kg; type: in vivo; conditions: rat, oral, SD rats
# Description: Test Example 4: Pharmacokinetic Test of Compounds of the Present Invention in Rats
# as §1
# An appropriate amount of sample was weighed, and ultrasonically prepared into a 0.3 mg/mL suspension for the gavage administration group as per a formula of 5% DMSO+10% Solutol+85% (20% SBE-β-CD).
# SD rats were fasted overnight, and then administered by gavage at a dosage of 3 mg/kg respectively.
# Blood and cerebrospinal fluid were collected at designed time points after administration, and then brain tissue was collected after cardiac perfusion with normal saline. Plasma was collected by centrifugation within 1 h, and then immediately transferred onto wet ice. Centrifugation conditions: 4-10° C., 8,000 rpm, 6 min. 4 h after administration, the animals were resumed for feeding/free access to water.
# The concentrations of corresponding compounds in plasma and cerebrospinal fluid were detected by LC-MS/MS.
SMILES,IC50 (human NK-3 receptor),bioavailability ([1]; po),"Cmax ([1]; po, gavage 3 mg/kg)","AUC ([1]; po, gavage 3 mg/kg)","half-life ([1]; po, gavage 3 mg/kg)",AUC ([1]; intravenous injection 1 mg/kg),half-life ([1]; intravenous injection 1 mg/kg),"Papp A→B at 2.5 h, 2 μM (MDR1)","Papp B→A at 2.5 h, 2 μM (MDR1)","efflux ratio at 2.5 h, 2 μM (MDR1)","concentration at 0.5 h ([2]; brain, sampling time 0.5 h, read-out: Brain conc.)","concentration at 2 h ([2]; brain, sampling time 2 h, read-out: Brain conc.)","concentration at 8 h ([2]; brain, sampling time 8 h, read-out: Brain conc.)","Kp at 0.5 h ([2]; brain/plasma, sampling time 0.5 h, read-out: B/P ratio)","Kp at 2 h ([2]; brain/plasma, sampling time 2 h, read-out: B/P ratio)","Kp at 8 h ([2]; brain/plasma, sampling time 8 h, read-out: B/P ratio)","concentration at 0.5 h ([2]; plasma, sampling time 0.5 h, read-out: Plasma conc.)","concentration at 2 h ([2]; plasma, sampling time 2 h, read-out: Plasma conc.)","concentration at 8 h ([2]; plasma, sampling time 8 h, read-out: Plasma conc.)"
"CC(=O)Nc1nc(-c2nc(C)ns2)n2c1[C@@H](C)N(C(=O)c1ccc(F)cc1)CC2 [Compound 034, (R)—N-(7-(4-fluorobenzoyl)-8-methyl-3-(3-methyl-1,2,4-thiadiazol-5-yl)-5,6,7,8-tetrahydroimidazo[1,5-a]pyrazin-1-yl)acetamide]",30.4 nM,83.1%,1290 ± 133 ng/mL,5580 ± 241 ng·h/mL,235 ± 39.7 min,2240 ± 418 ng·h/mL,177 ± 51.3 min,,,,,,,,,,,,
"Cc1nsc(-c2nc(-c3ccnc(F)c3)c3n2CCN(C(=O)c2ccc(F)cc2)[C@@H]3C)n1 [Compound 044, (R)-(4-fluorophenyl)(1-(2-fluoropyridin-4-yl)-8-methyl-3-(3-methyl-1,2,4-thiadiazol-5-yl)-5,6-dihydroimidazo[1,5-a]pyrazin-7 (8H)-yl)methanone]",17 nM,,,,,,,24 ×10⁻⁶ cm/s,15.9 ×10⁻⁶ cm/s,0.66,,,,,,,,,
"Cc1nsc(-c2nc(N3CCCC3=O)c3n2CCN(C(=O)c2ccc(F)cc2)[C@@H]3C)n1 [Compound 068, (R)-1-(7-(4-fluorobenzoyl)-8-methyl-3-(3-methyl-1,2,4-thiadiazol-5-yl)-5,6,7,8-tetrahydroimidazo[1,5-a]pyrazin-1-yl)pyrrolidin-2-one]",8.36 nM,73.4%,1030 ± 101 ng/mL,2890 ± 794 ng·h/mL,214 ± 83.4 min,1280 ± 264 ng·h/mL,61.2 ± 9.6 min,,,,,,,,,,,,
"Cc1nsc(-c2nc(-c3ccnc(F)c3F)c3n2CCN(C(=O)c2ccc(F)cc2)[C@@H]3C)n1 [Compound 074, (R)-(1-(2,3-difluoropyridin-4-yl)-8-methyl-3-(3-methyl-1,2,4-thiadiazol-5-yl)-5,6-dihydroimidazo[1,5-a]pyrazin-7 (8H)-yl)(4-fluorophenyl)methanone]",13.6 nM,,,,,,,22.9 ×10⁻⁶ cm/s,16.1 ×10⁻⁶ cm/s,0.7,,,,,,,,,
"Cc1nsc(-c2nc(-c3cc(F)ncc3F)c3n2CCN(C(=O)c2ccc(F)cc2)[C@@H]3C)n1 [Compound 077, (R)-(1-(2,5-difluoropyridin-4-yl)-8-methyl-3-(3-methyl-1,2,4-thiadiazol-5-yl)-5,6-dihydroimidazo[1,5-a]pyrazin-7 (8H)-yl)(4-fluorophenyl)methanone]",14.5 nM,58.4%,494 ± 70.6 ng/mL,9860 ± 3550 ng·h/mL,702 ± 463 min,5170 ± 581 ng·h/mL,709 ± 212 min,18.3 ×10⁻⁶ cm/s,14 ×10⁻⁶ cm/s,0.77,2570 ± 178 ng/mL,1980 ± 232 ng/mL,2020 ± 406 ng/mL,3.25,3.66,3.36,798 ± 79.8 ng/mL,547 ± 94.5 ng/mL,598 ± 74.9 ng/mL
"Cc1nsc(-c2nc(N3Cc4ccccc4C3=O)c3n2CCN(C(=O)c2ccc(F)cc2)[C@@H]3C)n1 [Compound 085, (R)-2-(7-(4-fluorobenzoyl)-8-methyl-3-(3-methyl-1,2,4-thiadiazol-5-yl)-5,6,7,8-tetrahydroimidazo[1,5-a]pyrazin-1-yl)isoindolin-1-one]",12.8 nM,,,,,,,28 ×10⁻⁶ cm/s,18.7 ×10⁻⁶ cm/s,0.67,,,,,,,,,
"Cc1nsc(-c2nc(N3C[C@H](F)CC3=O)c3n2CCN(C(=O)c2ccc(F)cc2)[C@@H]3C)n1 [Compound 107, (R)-4-fluoro-1-[(R)-7-(4-fluorobenzoyl)-8-methyl-3-(3-methyl-1,2,4-thiadiazol-5-yl)-5,6,7,8-tetrahydroimidazo[1,5-a]pyrazin-1-yl]pyrrolidin-2-one]",15.4 nM,65.6%,348 ± 104 ng/mL,1860 ± 303 ng·h/mL,281 ± 70.8 min,842 ± 66.3 ng·h/mL,56.4 ± 11.4 min,,,,,,,,,,,,
"Cc1nsc(-c2nc(-c3cc(F)ncc3O)c3n2CCN(C(=O)c2ccc(F)cc2)[C@@H]3C)n1 [Compound 165, (R)-(1-(2-fluoro-5-hydroxypyridin-4-yl)-8-methyl-3-(3-methyl-1,2,4-thiadiazol-5-yl)-5,6-dihydroimidazo[1,5-a]pyrazin-7 (8H)-yl)(4-fluorophenyl)methanone]",,,,,,,,19.2 ×10⁻⁶ cm/s,12.2 ×10⁻⁶ cm/s,0.64,,,,,,,,,
